Measured values published in ChEMBL document CHEMBL1909046, “DrugMatrix in vitro pharmacology data”.

Assays:
Insulin receptor = Insulin receptor (Rattus norvegicus, UniProt P15127); assay type: cell membranes, Wistar, Liver, Membrane; also: in other assays of this panel Not Active means under 50% inhibition at 10 µM
[1] = DRUGMATRIX: Phosphodiesterase PDE3 enzyme inhibition (substrate: [3H]cAMP + cAMP); assay type: tissue-based, Homo sapiens; conditions: platelet, Not Active = under 50% inhibition at 10 µM
[2] = DRUGMATRIX: GABAA, Muscimol, Central radioligand binding (ligand: [3H] Muscimol); assay type: cell membranes, Rattus norvegicus, Wistar, Brain, Membrane; conditions: Not Active = under 50% inhibition at 10 µM
D(4) dopamine receptor = target: T1, D(4) dopamine receptor (Homo sapiens, UniProt P21917); assay: DRUGMATRIX: Dopamine D4.2 radioligand binding (ligand: [3H] Spiperone); assay type: cell membranes, Membrane; conditions: cho-k1; Not Active = under 50% inhibition at 10 µM
T1 sequence (P21917 whole entry): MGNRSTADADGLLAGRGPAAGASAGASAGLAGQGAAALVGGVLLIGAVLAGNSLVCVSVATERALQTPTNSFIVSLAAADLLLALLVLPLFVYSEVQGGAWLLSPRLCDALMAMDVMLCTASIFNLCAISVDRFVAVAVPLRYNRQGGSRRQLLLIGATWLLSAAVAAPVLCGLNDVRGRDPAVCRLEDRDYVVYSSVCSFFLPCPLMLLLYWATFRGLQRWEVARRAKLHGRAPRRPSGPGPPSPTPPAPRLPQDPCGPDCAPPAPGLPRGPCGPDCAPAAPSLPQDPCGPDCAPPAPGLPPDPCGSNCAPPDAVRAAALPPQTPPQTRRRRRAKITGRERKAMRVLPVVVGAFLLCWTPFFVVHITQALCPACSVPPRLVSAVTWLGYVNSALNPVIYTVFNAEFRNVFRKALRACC

Endothelin-1 receptor = target: T2, Endothelin-1 receptor (Homo sapiens, UniProt P25101); assay type: cell membranes, Membrane; conditions: cho-k1; also: in other assays of this panel Not Active means under 50% inhibition at 10 µM
T2 sequence (P25101 whole entry): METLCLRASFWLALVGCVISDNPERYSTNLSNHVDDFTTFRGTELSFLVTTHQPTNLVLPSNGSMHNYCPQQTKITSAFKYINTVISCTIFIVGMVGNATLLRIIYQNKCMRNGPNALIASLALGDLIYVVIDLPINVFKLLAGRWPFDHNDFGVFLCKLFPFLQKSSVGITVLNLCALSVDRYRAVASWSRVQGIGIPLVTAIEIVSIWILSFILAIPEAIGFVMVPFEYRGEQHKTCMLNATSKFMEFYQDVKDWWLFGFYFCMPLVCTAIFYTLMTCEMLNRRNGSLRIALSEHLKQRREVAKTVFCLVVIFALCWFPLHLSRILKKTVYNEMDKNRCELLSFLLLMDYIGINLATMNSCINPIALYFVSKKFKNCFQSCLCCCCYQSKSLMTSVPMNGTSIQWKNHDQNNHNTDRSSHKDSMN

[3] = DRUGMATRIX: Interleukin IL-1 radioligand binding (ligand: [125I] interleukin 1beta); assay type: cell membranes, Membrane; conditions: nih3t3; Not Active = under 50% inhibition at 10 µM
Histamine H2 receptor = Histamine H2 receptor (Homo sapiens, UniProt P25021); assay type: cell membranes, CHO-K1, Membrane; conditions: cho-k1; also: in other assays of this panel Not Active means under 50% inhibition at 10 µM
Histamine H2 receptor, sequence (P25021 whole entry): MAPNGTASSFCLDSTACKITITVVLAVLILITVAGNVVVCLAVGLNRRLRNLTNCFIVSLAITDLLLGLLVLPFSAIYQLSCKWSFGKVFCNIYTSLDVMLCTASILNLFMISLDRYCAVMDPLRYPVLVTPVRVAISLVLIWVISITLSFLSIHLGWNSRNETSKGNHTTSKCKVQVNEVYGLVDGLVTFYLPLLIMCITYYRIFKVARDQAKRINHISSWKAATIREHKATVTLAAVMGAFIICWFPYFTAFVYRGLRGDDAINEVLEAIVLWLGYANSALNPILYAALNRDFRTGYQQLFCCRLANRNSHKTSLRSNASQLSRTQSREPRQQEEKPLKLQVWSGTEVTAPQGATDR

Leukotriene C4 synthase = target: T3, Leukotriene C4 synthase (Cavia porcellus, UniProt A6XA80); assay type: tissue-based, Lung;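 also: enzyme inhibition assay of leukotriene C4 synthase, using LTA4 as the substrate; in other assays of this panel Not Active means under 50% inhibition at 10 µM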
T3 sequence (A6XA80 whole entry): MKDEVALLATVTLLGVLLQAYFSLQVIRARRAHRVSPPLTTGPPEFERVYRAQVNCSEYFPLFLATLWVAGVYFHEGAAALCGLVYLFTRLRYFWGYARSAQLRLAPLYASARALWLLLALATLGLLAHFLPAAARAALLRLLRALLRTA

[4] = target: Sigma non-opioid intracellular receptor 1 (Homo sapiens, UniProt Q99720); assay: DRUGMATRIX: Sigma1 radioligand binding (ligand: [3H] Haloperidol); assay type: cell membranes, Jurkat, Membrane; conditions: jurkat; Not Active = under 50% inhibition at 10 µM
Sigma non-opioid intracellular receptor 1, sequence (Q99720 whole entry): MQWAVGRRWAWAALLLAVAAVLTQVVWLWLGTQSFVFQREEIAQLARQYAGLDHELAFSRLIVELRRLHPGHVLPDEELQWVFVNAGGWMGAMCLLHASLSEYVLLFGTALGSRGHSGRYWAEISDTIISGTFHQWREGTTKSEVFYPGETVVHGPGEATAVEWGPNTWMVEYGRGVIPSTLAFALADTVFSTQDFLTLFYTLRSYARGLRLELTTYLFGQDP

[5] = target: Platelet-activating factor receptor (Homo sapiens, UniProt P25105); assay type: tissue-based; also: in other assays of this panel Not Active means under 50% inhibition at 10 µM
Platelet-activating factor receptor, sequence (P25105 whole entry): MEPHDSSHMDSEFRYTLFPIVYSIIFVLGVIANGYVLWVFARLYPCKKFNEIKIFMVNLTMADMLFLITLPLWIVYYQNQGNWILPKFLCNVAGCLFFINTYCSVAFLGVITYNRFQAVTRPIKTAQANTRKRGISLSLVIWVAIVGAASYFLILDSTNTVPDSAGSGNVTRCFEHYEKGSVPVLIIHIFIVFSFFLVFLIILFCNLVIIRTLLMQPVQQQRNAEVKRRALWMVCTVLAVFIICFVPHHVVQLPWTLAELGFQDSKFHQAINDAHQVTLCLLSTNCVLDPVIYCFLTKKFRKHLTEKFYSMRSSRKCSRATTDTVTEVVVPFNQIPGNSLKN

[6] = target: Mitogen-activated protein kinase 3 (Homo sapiens, UniProt P27361); assay: DRUGMATRIX: Protein Serine/Threonine Kinase, ERK1 enzyme inhibition (substrate: Myelin Basic Protein); parameters: species or system Escherichia coli; conditions: Not Active = under 50% inhibition at 10 µM
Mitogen-activated protein kinase 3, sequence (P27361 whole entry): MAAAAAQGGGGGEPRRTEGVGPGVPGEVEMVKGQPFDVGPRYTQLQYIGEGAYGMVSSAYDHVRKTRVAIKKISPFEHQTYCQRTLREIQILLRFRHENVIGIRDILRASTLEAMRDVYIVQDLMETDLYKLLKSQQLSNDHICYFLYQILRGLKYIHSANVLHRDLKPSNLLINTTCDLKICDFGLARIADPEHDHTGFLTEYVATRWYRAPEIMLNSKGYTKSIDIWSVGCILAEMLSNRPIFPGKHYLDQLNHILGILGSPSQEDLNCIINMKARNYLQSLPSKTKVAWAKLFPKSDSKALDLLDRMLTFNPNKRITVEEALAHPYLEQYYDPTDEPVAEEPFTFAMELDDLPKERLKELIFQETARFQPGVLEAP

Insulin receptor, sequence (P15127 27-759 limits assumed): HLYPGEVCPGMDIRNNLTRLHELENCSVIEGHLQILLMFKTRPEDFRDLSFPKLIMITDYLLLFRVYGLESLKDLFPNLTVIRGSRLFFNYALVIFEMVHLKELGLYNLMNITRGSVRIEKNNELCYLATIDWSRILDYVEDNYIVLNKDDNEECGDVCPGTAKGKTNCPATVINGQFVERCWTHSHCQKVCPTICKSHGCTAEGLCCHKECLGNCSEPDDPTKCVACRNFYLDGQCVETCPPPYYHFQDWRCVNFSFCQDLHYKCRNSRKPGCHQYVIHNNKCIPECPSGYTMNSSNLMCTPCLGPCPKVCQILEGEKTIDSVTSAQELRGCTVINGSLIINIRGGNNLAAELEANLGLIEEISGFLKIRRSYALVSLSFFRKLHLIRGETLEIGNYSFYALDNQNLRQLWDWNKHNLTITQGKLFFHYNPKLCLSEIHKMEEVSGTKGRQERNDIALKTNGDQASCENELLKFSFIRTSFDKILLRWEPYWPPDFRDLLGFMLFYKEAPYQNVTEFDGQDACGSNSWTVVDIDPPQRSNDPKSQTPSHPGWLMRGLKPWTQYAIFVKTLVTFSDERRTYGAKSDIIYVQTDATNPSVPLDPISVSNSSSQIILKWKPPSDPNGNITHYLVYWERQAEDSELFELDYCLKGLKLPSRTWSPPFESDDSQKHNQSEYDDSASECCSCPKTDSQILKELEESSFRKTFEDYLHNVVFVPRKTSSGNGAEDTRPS
Insulin receptor, sequence (P15127 764-1383 limits assumed): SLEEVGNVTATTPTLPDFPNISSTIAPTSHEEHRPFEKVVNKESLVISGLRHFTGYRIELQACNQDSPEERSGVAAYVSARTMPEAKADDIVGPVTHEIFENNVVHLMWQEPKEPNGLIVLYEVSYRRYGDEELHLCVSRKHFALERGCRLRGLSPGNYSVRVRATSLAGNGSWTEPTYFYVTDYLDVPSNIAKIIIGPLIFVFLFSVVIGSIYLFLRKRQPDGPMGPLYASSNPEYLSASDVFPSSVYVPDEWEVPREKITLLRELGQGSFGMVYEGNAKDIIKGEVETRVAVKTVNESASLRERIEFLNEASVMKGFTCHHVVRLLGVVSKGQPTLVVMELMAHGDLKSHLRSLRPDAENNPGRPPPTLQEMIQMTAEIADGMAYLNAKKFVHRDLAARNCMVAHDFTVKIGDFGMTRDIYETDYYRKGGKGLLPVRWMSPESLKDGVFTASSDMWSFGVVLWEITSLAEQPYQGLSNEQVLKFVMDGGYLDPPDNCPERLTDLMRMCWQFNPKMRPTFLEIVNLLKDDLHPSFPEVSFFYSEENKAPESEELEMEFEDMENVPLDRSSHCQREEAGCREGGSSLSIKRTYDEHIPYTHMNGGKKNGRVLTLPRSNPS

SMILES | IC50 (Insulin receptor) | IC50 [1] | Ki [1] | IC50 [2] | Ki [2] | IC50 (D(4) dopamine receptor) | IC50 (Endothelin-1 receptor) | IC50 [3] | Ki [3] | IC50 (Histamine H2 receptor) | IC50 (Leukotriene C4 synthase) | IC50 [4] | IC50 [5] | IC50 [6] | IC50 ([1]; read-out: IC50)
CC(=O)N[C@@H]1[C@H](Oc2c3cc4cc2Oc2ccc(cc2Cl)[C@@H](O[C@@H]2O[C@@H](CO)[C@@H](O)[C@H](O)[C@@H]2NC(C)=O)[C@@H]2NC(=O)[C@H](NC(=O)[C@@H]4NC(=O)[C@H]4NC(=O)[C@@H](Cc5ccc(c(Cl)c5)O3)NC(=O)[C@H](N)c3ccc(O)c(c3)Oc3cc(O)cc4c3)c3ccc(O)c(c3)-c3c(O[C@H]4O[C@H](CO)[C@@H](O)[C@@H](O)[C@@H]4O)cc(O)cc3[C@@H](C(=O)O)NC2=O)O[C@@H](CO)[C@@H](O)[C@@H]1O | Not Active | Not Active | Not Active | Not Active | Not Active | Not Active | Not Active | Not Active | Not Active | Not Active | Not Active | Not Active | Not Active | Not Active | –
O=C1CCC(N2C(=O)c3ccccc3C2=O)C(=O)N1 (stereo unspecified) [THALIDOMIDE] | Not Active | Not Active | Not Active | Not Active | Not Active | Not Active | Not Active | Not Active | Not Active | Not Active | Not Active | Not Active | Not Active | Not Active | –
CC[C@]1(O)C[C@@H]2CN(CCc3c([nH]c4ccccc34)[C@@](C(=O)OC)(c3cc4c(cc3OC)N(C)[C@H]3[C@@](O)(C(=O)OC)[C@H](OC(C)=O)[C@]5(CC)C=CCN6CC[C@]43[C@@H]65)C2)C1 [VINBLASTINE] | Not Active | Not Active | Not Active | Not Active | Not Active | Not Active | Not Active | Not Active | Not Active | Not Active | Not Active | Not Active | Not Active | Not Active | –
CC1=C(CC(=O)O)c2cc(F)ccc2/C1=C\c1ccc([S+](C)[O-])cc1 (stereo unspecified) | Not Active | Not Active | Not Active | Not Active | Not Active | Not Active | Not Active | Not Active | Not Active | Not Active | Not Active | Not Active | Not Active | Not Active | –
CC(C)C[C@H](NC(=O)[C@@H](O)[C@H](N)Cc1ccccc1)C(=O)O [UBENIMEX] | Not Active | Not Active | Not Active | Not Active | Not Active | Not Active | Not Active | Not Active | Not Active | Not Active | Not Active | Not Active | Not Active | Not Active | –
CC(C)c1nc(CN(C)C(=O)N[C@H](C(=O)N[C@@H](Cc2ccccc2)C[C@H](O)[C@H](Cc2ccccc2)NC(=O)OCc2cncs2)C(C)C)cs1 [RITONAVIR] | Not Active | Not Active | Not Active | Not Active | Not Active | Not Active | Not Active | Not Active | Not Active | Not Active | Not Active | Not Active | Not Active | Not Active | –
CC(=O)CC(c1ccccc1)c1c(O)c2ccccc2oc1=O (stereo unspecified) [WARFARIN] | Not Active | Not Active | Not Active | Not Active | Not Active | Not Active | Not Active | Not Active | Not Active | Not Active | Not Active | Not Active | Not Active | Not Active | –
COCCCOc1ccnc(C[S+]([O-])c2nc3ccccc3[nH]2)c1C (stereo unspecified) [RABEPRAZOLE] | Not Active | – | – | Not Active | Not Active | Not Active | Not Active | Not Active | Not Active | Not Active | Not Active | Not Active | Not Active | Not Active | 2280 nM
N[C@H](CSC(=S)NCc1ccccc1)C(=O)O | Not Active | Not Active | Not Active | Not Active | Not Active | Not Active | Not Active | Not Active | Not Active | Not Active | Not Active | Not Active | Not Active | Not Active | –
[H]/N=C(/N)N[C@H]1[C@H](O)[C@@H](O)[C@H](O[C@@H]2O[C@@H](C)[C@](O)(C=O)[C@H]2O[C@@H]2O[C@@H](CO)[C@H](O)[C@@H](O)[C@@H]2NC)[C@@H](N/C(N)=N\[H])[C@@H]1O [STREPTOMYCIN] | Not Active | Not Active | Not Active | Not Active | Not Active | Not Active | Not Active | Not Active | Not Active | Not Active | Not Active | Not Active | Not Active | Not Active | –
CC(C)(C)c1ccc(C(O)CCCN2CCC(C(O)(c3ccccc3)c3ccccc3)CC2)cc1 (stereo unspecified) [TERFENADINE] | Not Active | Not Active | Not Active | Not Active | Not Active | Not Active | Not Active | Not Active | Not Active | Not Active | Not Active | Not Active | Not Active | Not Active | –
CO[C@H]1/C=C/O[C@@]2(C)Oc3c(C)c(O)c4c(c3C2=O)C2=NC3(CCN(CC(C)C)CC3)NC2=C(NC(=O)/C(C)=C\C=C\[C@H](C)[C@H](O)[C@@H](C)[C@@H](O)[C@@H](C)[C@H](OC(C)=O)[C@@H]1C)C4=O [RIFABUTIN] | Not Active | Not Active | Not Active | Not Active | Not Active | Not Active | Not Active | Not Active | Not Active | Not Active | Not Active | Not Active | Not Active | Not Active | –
C[C@@H](N)[C@H]1CC[C@H](C(=O)Nc2ccncc2)CC1 [Y-27632] | Not Active | Not Active | Not Active | Not Active | Not Active | Not Active | Not Active | Not Active | Not Active | Not Active | Not Active | Not Active | Not Active | Not Active | –
